Values quoted from earlier work as cited in patent US20080262061A1, “COMPOSITION AND USE OF A LIQUID FUNGICIDAL FORMULATION OF MYCLOBUTANIL OR TEBUCONAZOLE FUNGICIDE” (HELENA HOLDING COMPANY, priority 2007, published 2008).

Conditions: background statement

## CC(C)(C)C(O)(CCc1ccc(Cl)cc1)Cn1cncn1 (racemic) [tebuconazole, (RS)-1-p-chlorophenyl-4,4-dimethyl-3-(1H-1,2,4-triazol-1-ylmethyl)═pentan-3-ol]
  water solubility: not significantly water soluble

## CCCCC(C#N)(Cn1cncn1)c1ccc(Cl)cc1 (centres unmarked) [Myclobutanil, 2-p-chlorophenyl-2-(1H-1,2,4-triazol-1-ylmethyl)hexanenitrile]
  water solubility: not significantly water soluble
